Source: article PMC4577212, “X-Ray Structure and Mutagenesis Studies of the N-Isopropylammelide Isopropylaminohydrolase, AtzC” (PLoS ONE, 2015)

Molecular target: T1, AtzC (N-isopropylammelide isopropylaminohydrolase) (Pseudomonas sp. ADP, UniProt O52063)
T1 construct: full length, N-terminal His-tag (pETCC2, from pET14b), expressed in E. coli BL21(DE3); tag cut with thrombin for crystals; homotetramer ~210 kDa; Zn enzyme
T1 sequence (O52063 1-403): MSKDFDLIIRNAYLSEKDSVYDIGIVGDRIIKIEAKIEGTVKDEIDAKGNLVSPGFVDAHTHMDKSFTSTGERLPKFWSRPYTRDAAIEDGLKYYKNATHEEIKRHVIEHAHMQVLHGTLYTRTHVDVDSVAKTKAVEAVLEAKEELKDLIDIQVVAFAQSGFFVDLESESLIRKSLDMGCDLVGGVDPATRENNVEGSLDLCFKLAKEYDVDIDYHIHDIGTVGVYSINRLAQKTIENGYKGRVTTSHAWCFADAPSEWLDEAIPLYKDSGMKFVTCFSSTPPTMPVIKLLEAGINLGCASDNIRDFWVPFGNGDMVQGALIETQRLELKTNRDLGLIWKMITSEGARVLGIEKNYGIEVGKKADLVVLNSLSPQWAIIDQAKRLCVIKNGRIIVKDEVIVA
Experiment: X-ray crystal structure, […] Å
Format: binding
Details: crystals from 2.4 M sodium malonate pH 7; active site; tag cut with thrombin

O=C(O)CC(=O)O [malonic acid]
X-ray crystal structure, 1.84 Å: The malonate (a poor inhibitor of AtzC, Figure E in S1 File) adopts a planar conformation
